Consider eleven molecules from paper PMC11579929, “Proline-Modified RWn Peptides: Enhanced Antifungal Efficacy and Synergy with Conventional Antibiotics for Combating Resistant Fungal Infections” (ACS Omega, 2024).

In one data set the test system is C. albicans [ATCC 90028]. Briefly: microbe, parasite or virus in culture. Conditions: for MIC: Candida albicans. Format: cell-based, Candida albicans.
Data set [1] relates to C. neoformans [ATCC 208821]. Briefly: microbe, parasite or virus in culture. Format: cell-based, Cryptococcus neoformans. Conditions: for MIC: Cryptococcus neoformans.
A short description of a further data set: Cytotoxicity assay. Particulars: human, HEK293 cells. Format: cell-based. As for the experimental part: (§1) The antifungal activities were evaluated by determining the minimum inhibitory concentration (MIC) against C. albicans [ATCC 90028] and C. neoformans [ATCC 208821] that inhibits 99% fungal growth. Cytotoxicity and hemolytic activities were assessed against human embryonic kidney (HEK293) cells and human red blood cells, respectively. The antimicrobial screening was performed by The Community for Antimicrobial Drug Discovery (CO-ADD).[31] Cytotoxicity assays were performed on active compounds to assess their selectivity toward microbial cells. The protocol for the cytotoxicity assay is described in the Supporting Information.[28]

Another data set relates to human red blood cells. Briefly: Hemolytic activity. The class given is cell-based. Particulars: for Hemolytic Toxicity (<32 mg/mL): yes/no below as printed. As for the experimental part:
The antifungal activities were evaluated by determining the minimum inhibitory concentration (MIC) against C. albicans [ATCC 90028] and C. neoformans [ATCC 208821] that inhibits 99% fungal growth. Cytotoxicity and hemolytic activities were assessed against human embryonic kidney (HEK293) cells and human red blood cells, respectively. The antimicrobial screening was performed by The Community for Antimicrobial Drug Discovery (CO-ADD).[31]

The subject of the next data set is HEK293 and RBC. Briefly: Toxicity (HEK293 and RBC), stated jointly. Format: cell-based, human. The procedure: as §1

Values after ≈ are worked out from the molar mass of the structure shown. Like-named read-outs stand apart in the source and are kept apart here. Where no end group is shown, it is not given here.

For `CC1(C)S[C@@H]2[C@H](NC(=O)[C@H](N)c3ccccc3)C(=O)N2[C@H]1C(=O)O` [AMP, ampicillin, reference compound], the MIC in the data set with C. albicans [ATCC 90028] (ATCC90028, antibiotic alone or 4.75 mg antibiotic mixed with 0.25 mg of peptide, read-out: C. albicans MIC) was greater than 32 µg/mL; in data set [1] (ATCC208821, antibiotic alone or 4.75 mg antibiotic mixed with 0.25 mg of peptide, read-out: C. neoformans MIC) it was greater than 32 µg/mL.
Turning to RWRWRWRWRWRWRWRW-NH2 [RW8, (RW)8-NH2], the “C. albicans MIC” value with C. albicans [ATCC 90028] (ATCC 90028, 3 h) was found to be 32 µg/mL. The same molecule yielded a CC50 in the data set “Cytotoxicity assay” greater than 32 µg/mL. Besides, the “C. neoformans MIC” value in data set [1] (ATCC 208821, 3 h) worked out at 0.5 µg/mL. Moreover, in the data set on human red blood cells (Table 2, human red blood cells), the “Hemolytic Activity” value was found to be 0.452 µg/mL. Further, the “Hemolytic Toxicity (<32 mg/mL)” value in the data set on human red blood cells is “Yes”.
In the case of `CC[C@H](C)[C@H](N)C(=O)N[C@@H](CC(C)C)C(=O)N1CCC[C@H]1C(=O)N[C@@H](Cc1c[nH]c2ccccc12)C(=O)N[C@@H](CCCCN)C(=O)N[C@@H](Cc1c[nH]c2ccccc12)C(=O)N1CCC[C@H]1C(=O)N[C@@H](Cc1c[nH]c2ccccc12)C(=O)N[C@@H](Cc1c[nH]c2ccccc12)C(=O)N1CCC[C@H]1C(=O)N[C@@H](Cc1c[nH]c2ccccc12)C(=O)N[C@@H](CCCNC(=N)N)C(=O)N[C@@H](CCCNC(=N)N)C(N)=O` [Indolicidin, reference compound], the “C. albicans MIC” value in the data set on C. albicans [ATCC 90028] (ATCC 90028, concentration that inhibits 99% fungal growth, peptide alone) is greater than 32 µg/mL. In the data set “Cytotoxicity assay” (Table 2, read-out: HEK293 Toxicity), the CC50 was greater than 32 µg/mL. Besides, in data set [1] (ATCC 208821, concentration that inhibits 99% fungal growth, peptide alone), the “C. neoformans MIC” value was greater than 32 µg/mL. Besides, the “Hemolytic Activity” value with human red blood cells (Table 2, human red blood cells) is greater than 32 µg/mL. In addition, the “Hemolytic Toxicity (<32 mg/mL)” value with human red blood cells is listed as “No”.
For RWRWRWRWPRWRWRWRW-NH2 [RW8P], the “C. albicans MIC” value with C. albicans [ATCC 90028] (ATCC 90028, 3 h) was greater than 32 µg/mL. This molecule also returned a CC50 in the data set “Cytotoxicity assay” greater than 32 µg/mL. The “C. neoformans MIC” value in data set [1] (ATCC 208821, 3 h) was no more than 0.25 µg/mL. Besides, the “Hemolytic Activity” value with human red blood cells (Table 3, unit not given) was greater than 32.
In turn, RWRWRWRW-NH2 [RW4, (RW)4-NH2] displayed a CC50 in “Cytotoxicity assay” greater than 32 µg/mL. In addition, the “Hemolytic Activity” value with human red blood cells (Table 2, human red blood cells) is greater than 32 µg/mL. The “Hemolytic Toxicity (<32 mg/mL)” value in the data set on human red blood cells is “No”.
Turning to `N=C(N)NCCC[C@H](NC(=O)[C@H](Cc1c[nH]c2ccccc12)NC(=O)[C@H](CCCNC(=N)N)NC(=O)[C@H](Cc1c[nH]c2ccccc12)NC(=O)[C@H](CCCNC(=N)N)NC(=O)[C@H](Cc1c[nH]c2ccccc12)NC(=O)[C@H](CCCNC(=N)N)NC(=O)[C@H](Cc1c[nH]c2ccccc12)NC(=O)[C@H](CCCNC(=N)N)NC(=O)[C@H](Cc1c[nH]c2ccccc12)NC(=O)[C@@H](N)CCCNC(=N)N)C(=O)N[C@@H](Cc1c[nH]c2ccccc12)C(N)=O` [RW6, (RW)6-NH2], the “C. albicans MIC” value with C. albicans [ATCC 90028] (ATCC 90028, 3 h) is 8 µg/mL. Further, the CC50 in “Cytotoxicity assay” is greater than 32 µg/mL. Besides, in the data set with human red blood cells (Table 2, human red blood cells), the “Hemolytic Activity” value was no more than 0.25 µg/mL. The “Hemolytic Toxicity (<32 mg/mL)” value in the data set on human red blood cells is recorded as “Yes”.
Turning to RWRWRWPRWRWRW-NH2 [RW6P], the CC50 in the data set “Cytotoxicity assay” is greater than 32 µg/mL. The “Hemolytic Activity” value in the data set on human red blood cells (Table 3, unit not given) is given as greater than 32. Also, the “Toxicity in HEK293 or red blood cells (in words)” value with HEK293 and RBC was “without observable toxicity”.
On to RWRWPRWRW-NH2 [RW4P], for which, in the data set with C. albicans [ATCC 90028] (ATCC 90028, 3 h), the “C. albicans MIC” value was greater than 32 µg/mL. For the same molecule, the CC50 in the data set “Cytotoxicity assay” was greater than 32 µg/mL. For the same molecule, the “C. neoformans MIC” value in data set [1] (ATCC 208821, 3 h) was no more than 0.25 µg/mL. For the same molecule, the “Hemolytic Activity” value in the data set on human red blood cells (Table 3, unit not given) was greater than 32.
In turn, RWRWPRWRWPRWRW-NH2 [RW6–2P] came in with a CC50 in “Cytotoxicity assay” greater than 32 µg/mL. The “Hemolytic Activity” value in the data set with human red blood cells (Table 3, unit not given) is listed as greater than 32. Further, in the data set on HEK293 and RBC, the “Toxicity in HEK293 or red blood cells (in words)” value is “without any detectable toxicity”.
With `OC(Cn1cncn1)(Cn1cncn1)c1ccc(F)cc1F` [Fluconazole, reference compound], the MIC came out at 0.125 µg/mL (≈ 0.408 µM) with C. albicans [ATCC 90028] (ATCC90028, BMD method, YNB, 384 NBS plates, average of ≥ 6 independent biological replicates, antifungal standard, read-out: MIC Candida albicans ATCC 90028) and 8 µg/mL (≈ 26.1 µM) in data set [1] (ATCC208821, BMD method, YNB, 384 NBS plates, average of ≥ 6 independent biological replicates, antifungal standard, read-out: MIC Cryptococcus neoformans H99 ATCC 208821).
For `CN[C@H](CC(C)C)C(=O)N[C@H]1C(=O)N[C@@H](CC(N)=O)C(=O)N[C@H]2C(=O)N[C@H]3C(=O)N[C@H](C(=O)N[C@H](C(=O)O)c4cc(O)cc(O)c4-c4cc3ccc4O)[C@H](O)c3ccc(c(Cl)c3)Oc3cc2cc(c3O[C@@H]2O[C@H](CO)[C@@H](O)[C@H](O)[C@H]2O[C@H]2C[C@](C)(N)[C@H](O)[C@H](C)O2)Oc2ccc(cc2Cl)[C@H]1O` [VAN, vancomycin, reference compound], the MIC is greater than 32 µg/mL in the data set on C. albicans [ATCC 90028] (ATCC90028, read-out: C. albicans MIC) and greater than 32 µg/mL in data set [1] (ATCC208821, read-out: C. neoformans MIC).
